Key:
Format in all cases: in vivo, human
[1] = Tasting of cooling compounds in Vittel mineral water
Protocol: Solutions of 10%-menthol, 10% 5-MPC and 10% MPF, respectively, in ethanol were diluted with Vittel™ mineral water. The solutions were tasted and compared with pure Vittel™ water.

mouth cavity = assay: Evaluation of cooling substances in orange juice
Protocol: Several cooling substances were evaluated in orange juice.

trained panelists = assay: Cooling threshold in water, triangle test by trained panelists; conditions: determined in water
Protocol: Prior to sensory analysis, the purity of the synthetic taste compounds was checked by GC/MS. Determination of the cooling, as well as the aroma threshold, of the compounds was performed by trained panelists. Nasal odor thresholds (Guth, H.; Grosch, W. J. Am. Oil Chem. Soc. 1993, 70, 513-518), as well as cooling thresholds, were determined by triangle tests using tap water as the solvent. The samples were presented in order of increasing concentrations and the threshold values evaluated in three separate sessions were averaged. The values between individuals and separate sessions differed by not more than one dilution step.

[2] = Cooling threshold in milk chocolate; conditions: for Cooling effect [mg/100 g chocolate]: cooling threshold in milk chocolate
From the text: In an additional experiment, the cooling thresholds of 3-MPC, 5-MPC, MPF, 2(5H)-MPF and 2(5H)-DMPF have been determined in chocolate. […] The ratio for compounds of the invention is typically less than that of menthol, preferably less than 9, more preferably less than about 3. In other embodiments, the cooling threshold to odor threshold ratio is less than about 1 or less than about 0.1.

[3] = test system: skin surface on the inside of the right forearm; assay: Topical testing of cooling intensity on the forearm; conditions: scale 0 (no effect) to 5 (very strong)
Protocol: Topical thresholds of cooling compounds 5-MPF, 2(5H)-DMPF, 2(5H)-MPF and MPF were determined as follows: An aliquot (0.5 mL) of a solution, […], was applied to a circular area (10 cm^2) of the skin surface on the inside of the right forearm, midway between the wrist and the elbow, and were rubbed for 1 min. In parallel, an aliquot (0.5 mL) of pure tap water was applied as the blank onto the skin of the left forearm. After 1 min, the skin was dried. A panel of 10 subjects (male and female) were asked to rank the cooling intensity on a scale from 0 (no effect) to 5 (very strong). The values evaluated in three different sessions at two days were averaged. The values between individuals and separate sessions differed not more than 2 scores.

Application in ice cream = conditions: 20 mg/kg in ice cream
Protocol: Full-fat cream (250 g), milk (250 ml) and sugar (100 g) were mixed and stirred until the sugar was dissolved. Then the mixture was poured into an ice cream machine (Il Gelataio Super, Simac Inc., Gessate, Italy) and frozen within 30 minutes while stirring. In the same way, ice cream was prepared with 5-MPC (20 mg/kg). […] The cool refreshing impression of this ice cream persisted much longer than with the unflavored reference compound.

mouth = assay: Taste testing of sugar confectionery (candies)
Protocol: Sugar (100 g) was heated together with water (15 g) in a beaker on a hot plate. After the mixture became a clear solution, the sugar syrup was heated further until it became viscous due to the evaporation of water. Then 5-MPC (20 mg) and MPF (100 mg), respectively, were added. The viscous liquid was then poured into molds (3 g each) and cooled down to room temperature. The candies, which had been formed in the molds, were demolded and used for taste testing.

In the case of `CC1CCC(C(C)C)C(O)C1` (single isomer, unassigned; (-)) [(−)-Menthol, reference compound], the “Flavor: cooling effect” value ([1]; 10 mg/L in Vittel mineral water) is reported as “Pronounced cooling effect, strong”, the cooling effect (mouth cavity; 20 mg/L in orange juice) is reported as “strong cooling effect” and the Cooling threshold (trained panelists) is reported as 0.9 to 1.9 mg/kg.
With `CC1=C(N2CCCC2)C(=O)OC1C` (stereo not drawn) [2(5H)-DMPF, 4,5-Dimethyl-3-(1-pyrrolidinyl)-2(5H)-furanone] the “Cooling effect [mg/100 g chocolate]” value [2] was 5.0-7.5 mg/100 g chocolate, the Cooling intensity ([3]; 0.00625 % in tap water) was 0 and the Cooling intensity ([3]; 0.0125 % in tap water) was 1. It also gave a Cooling intensity ([3]; 0.025 % in tap water) of 3, a Cooling intensity ([3]; 0.05 % in tap water) of 5 and a Cooling intensity ([3]; 0.1 % in tap water) of 5. For the same compound, the Cooling intensity ([3]; 0.2 % in tap water) was 5, the Cooling intensity ([3]; 0.5 % in tap water) was 5 and the Cooling intensity ([3]; 1.0 % in tap water) was 5. It also gave a Cooling threshold (trained panelists) of 2.0 to 4.0 mg/kg.
In the case of `CC1=C(N2CCCC2)C(=O)OC1` [2(5H)-MPF, 4-Methyl-3-(1-pyrrolidinyl)-2(5H)-furanone], the “Cooling effect [mg/100 g chocolate]” value [2] is reported as 0.25-0.5 mg/100 g chocolate, the Cooling intensity ([3]; 0.00020 % in tap water) is reported as 0 and the Cooling intensity ([3]; 0.00039 % in tap water) is reported as 1. For the same compound, the Cooling intensity ([3]; 0.00078 % in tap water) was 2, the Cooling intensity ([3]; 0.00156 % in tap water) was 3 and the Cooling intensity ([3]; 0.00313 % in tap water) was 5. For the same compound, the Cooling intensity ([3]; 0.00625 % in tap water) was 5 and the Cooling threshold (trained panelists) was 0.02 to 0.06 mg/kg.
`CC1=C(N2CCCC2)C(=O)CC1C` (stereo not drawn) [3,4-DMPC, 3,4-Dimethyl-2-(1-pyrrolidinyl)-2-cyclopenten-1-one] showed a Cooling threshold (trained panelists) of 51 to 86 mg/kg.
`CC1=C(N2CCCC2)C(=O)C(C)C1` (stereo not drawn) [3,5-DMPC, 3,5-Dimethyl-2-(1-pyrrolidinyl)-2-cyclopenten-1-one] gave a Cooling threshold (trained panelists) of 33 to 54 mg/kg.
With `CC1=C(N2CCCC2)C(=O)CC1` [3-MPC, 3-Methyl-2-(1-pyrrolidinyl)-2-cyclopenten-1-one] the “Cooling effect [mg/100 g chocolate]” value [2] was 38-63 mg/100 g chocolate and the Cooling threshold (trained panelists) was 29 to 44 mg/kg.
With `CC1=C(N2CCCC2)C(=O)CCC1` [3-MPCH, 3-Methyl-2-(1-pyrrolidinyl)-2-cyclohexen-1-one] the Cooling threshold (trained panelists) was 90 to 150 mg/kg.
With `CC1=C(N2CCCCC2)C(=O)CC1` [3-MPipC, 3-Methyl-2-(1-piperidinyl)-2-cyclopenten-1-one] the Cooling threshold (trained panelists) was 60 to 100 mg/kg.
`CC1=C(N2CCCC2C(=O)O)C(=O)CC1` (stereo not drawn) [3-MProC, 3-Methyl-2-(2-carboxy-1-pyrrolidinyl)-2-cyclopentene-1-one] showed a Cooling threshold (trained panelists) of 490 to 735 mg/kg.
Work on `CC1C=C(N2CCCC2)C(=O)C1C` (stereo not drawn) [4,5-DMPC, 4,5-Dimethyl-2-(1-pyrrolidinyl)-2-cyclopenten-1-one] yielded a Cooling threshold (trained panelists) of 68 to 113 mg/kg.
`CCC1CC=C(N2CCCC2)C1=O` (stereo not drawn) [5-EPC, 5-Ethyl-2-(1-pyrrolidinyl)-2-cyclopenten-1-one] gave a Cooling threshold (trained panelists) of 27 to 43 mg/kg.
Compound `COC(=O)C1CCCN1C1=CCC(C)C1=O` (stereo not drawn) [5-MMeproC, 5-Methyl-2-(2-methoxycarbonyl-1-pyrrolidinyl)-2-cyclopentene-1-one] has a Cooling threshold (trained panelists) of 112 to 188 mg/kg.
With `CC1CC=C(N2CCCC2)C1=O` (stereo not drawn) [5-MPC, 5-Methyl-2-(1-pyrrolidinyl)-2-cyclopenten-1-one] the “Cooling effect [mg/100 g chocolate]” value [2] was 2.3-3.7 mg/100 g chocolate, the “fold higher cooling threshold than 2(5H)-MPF” value ([2]; in chocolate, compared with 2(5H)-MPF) was 8 fold and the cooling effect (Application in ice cream) was “pronounced long lasting cooling effect”. The cooling effect (mouth cavity; 200 mg/L in orange juice) was “strong cooling effect”, the “cooling effect in the mouth” value (mouth; 20 mg added to syrup of 100 g sugar) was “pronounced cooling effect” and the Cooling intensity ([3]; 0.00020 % in tap water) was 0. The Cooling intensity ([3]; 0.00039 % in tap water) was 0, the Cooling intensity ([3]; 0.00078 % in tap water) was 0 and the Cooling intensity ([3]; 0.00156 % in tap water) was 0. For the same compound, the Cooling intensity ([3]; 0.00313 % in tap water) was 0, the Cooling intensity ([3]; 0.00625 % in tap water) was 0 and the Cooling intensity ([3]; 0.0125 % in tap water) was 0. It also gave a Cooling intensity ([3]; 0.025 % in tap water) of 0, a Cooling intensity ([3]; 0.05 % in tap water) of 0 and a Cooling intensity ([3]; 0.1 % in tap water) of 0. For the same compound, the Cooling intensity ([3]; 0.2 % in tap water) was 1, the Cooling intensity ([3]; 0.5 % in tap water) was 3 and the Cooling intensity ([3]; 1.0 % in tap water) was 5. For the same compound, the Cooling threshold (trained panelists) was 4.5 to 9 mg/kg.
Compound `CCN(CC)C1=CCC(C)C1=O` (stereo not drawn) [5-MdeaC, 5-Methyl-2-diethylamino-2-cyclopenten-1-one] has a Cooling threshold (trained panelists) of 12 to 20 mg/kg.
Work on `CC1CC=C(N2CCCCC2)C1=O` (stereo not drawn) [5-MpipC, 5-Methyl-2-(1-piperidinyl)-2-cyclopenten-1-one] yielded a Cooling threshold (trained panelists) of 16 to 24 mg/kg.
In the case of `CC1CCC=C(N2CCCC2)C1=O` (stereo not drawn) [6-MPCH, 6-Methyl-2-(1-pyrrolidinyl)-2-cyclohexen-1-one], the Cooling threshold (trained panelists) is reported as 27 to 45 mg/kg.
In the case of `CC1=C(N2CCCC2)C(=O)C(C)O1` (stereo not drawn) [DMPF, 2,5-Dimethyl-4-(1-pyrrolidinyl)-3(2H)-furanone], the Cooling threshold (trained panelists) is reported as 100 to 140 mg/kg.
With `CC1=C(N2CCCC2)C(=O)CO1` [MPF, 5-Methyl-4-(1-pyrrolidinyl)-3(2H)-furanone] the “Cooling effect [mg/100 g chocolate]” value [2] was 0.8-1.5 mg/100 g chocolate, the “Flavor: cooling effect” value ([1]; 400 mg/L in Vittel mineral water) was “Pronounced cooling effect” and the cooling effect (mouth cavity; 1000 mg/L in orange juice) was “pronounced cooling effect”. The “cooling effect in the mouth” value (mouth; 100 mg added to syrup of 100 g sugar) was “pronounced cooling effect”, the Cooling intensity ([3]; 0.00020 % in tap water) was 0 and the Cooling intensity ([3]; 0.00039 % in tap water) was 0. For the same compound, the Cooling intensity ([3]; 0.00078 % in tap water) was 0, the Cooling intensity ([3]; 0.00156 % in tap water) was 0 and the Cooling intensity ([3]; 0.00313 % in tap water) was 0. The Cooling intensity ([3]; 0.00625 % in tap water) was 0, the Cooling intensity ([3]; 0.0125 % in tap water) was 0 and the Cooling intensity ([3]; 0.025 % in tap water) was 0. The Cooling intensity ([3]; 0.05 % in tap water) was 1, the Cooling intensity ([3]; 0.1 % in tap water) was 2 and the Cooling intensity ([3]; 0.2 % in tap water) was 4. It also gave a Cooling intensity ([3]; 0.5 % in tap water) of 5, a Cooling intensity ([3]; 1.0 % in tap water) of 5 and a Cooling threshold (trained panelists) of 1.5 to 3.0 mg/kg.

From US20040052828A1, “Consumable product including consumable component and alpha-keto enamine derivatives” (priority 2000, published 2004)
